According to patent US12428406B2 (PMV Pharmaceuticals, Inc., priority 2019, dated 2025):

Target: T1, p53 Y220C (Homo sapiens, UniProt P04637, Y220C)
T1 construct: The recombinant protein was a truncation mutant containing only amino acids 94-312 of p53; made in house; host or cells: E. coli
Experiment: In vitro DNA binding activity assay (HTRF / TR-FRET): stabilization of p53 Y220C and increase of its DNA binding activity
Format: biochemical
Conditions: recombinant His-tagged p53 Y220C DNA binding domain (aa 94-312), biotin-labeled consensus DNA, incubated at 27° C. or 29° C. for 60 min
Outline: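 His-tagged p53 Y220C, E. coli-expressed, binding biotin-labeled consensus DNA measured by HTRF (anti-His-APC, streptavidin-europium). Compounds from 4.5 mM DMSO stocks, 3-fold serial dilutions; incubations at room temperature 15 min, then 20 min. SC150 = concentration raising DNA binding by 50%.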

T1 sequence (P04637 94-312, change not shown): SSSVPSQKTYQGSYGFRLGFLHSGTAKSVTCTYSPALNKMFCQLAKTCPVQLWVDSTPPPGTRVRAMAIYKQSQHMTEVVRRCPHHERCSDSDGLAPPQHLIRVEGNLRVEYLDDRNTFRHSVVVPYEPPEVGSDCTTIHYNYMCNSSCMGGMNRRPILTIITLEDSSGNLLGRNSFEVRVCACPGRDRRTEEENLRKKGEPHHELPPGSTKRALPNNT

SC150 (concentration of the compound required to increase the DNA binding activity by 50%)	SMILES
+ (+ = 0 μM ≤ SC150 < 0.05 μM)	COc1cc(C(=O)NC[C@@H](C)O)ccc1NCC#Cc1cc2c(N[C@@H]3CCN(C)C[C@@H]3F)cccc2n1CC(F)(F)F [Compound 957A, 4-((3-(4-(((3S,4R)-3-fluoro-1-methylpiperidin-4-yl)amino)-1-(2,2,2-trifluoroethyl)-1H-indol-2-yl)prop-2-yn-1-yl)amino)-N—((R)-2-hydroxypropyl)-3-methoxybenzamide]
+ (+ = 0 μM ≤ SC150 < 0.05 μM)	COCC(O)CNC(=O)c1ccc(NCC#Cc2cc3c(N[C@@H]4CCN(C)C[C@@H]4F)cccc3n2CC(F)(F)F)c(OC)c1 (stereo partly shown) [Compound 960A]
+ (+ = 0 μM ≤ SC150 < 0.05 μM)	COc1cc(C(=O)NC[C@H](C)O)ccc1NCC#Cc1cc2c(N[C@@H]3CCN(C)C[C@@H]3F)cccc2n1CC(F)(F)F [Compound 961A, 4-{[3-(4-{[(3S,4R)-3-fluoro-1-methylpiperidin-4-yl]amino}-1-(2,2,2-trifluoroethyl)-1H-indol-2-yl)prop-2-yn-1-yl]amino}-N-[(2S)-2-hydroxypropyl]-3-methoxybenzamide]
+ (+ = 0 μM ≤ SC150 < 0.05 μM)	COc1cc(C(=O)NC[C@H](O)CO)ccc1NCC#Cc1cc2c(N[C@@H]3CCN(C)C[C@@H]3F)cccc2n1CC(F)(F)F [Compound 964A, N-[(2S)-2,3-dihydroxypropyl]-4-{[3-(4-{[(3S,4R)-3-fluoro-1-methylpiperidin-4-yl]amino}-1-(2,2,2-trifluoroethyl)-1H-indol-2-yl)prop-2-yn-1-yl]amino}-3-methoxybenzamide]
+ (+ = 0 μM ≤ SC150 < 0.05 μM)	COc1cc(C(=O)NC(CCO)CCO)ccc1NCC#Cc1cc2c(N[C@@H]3CCN(C)C[C@@H]3F)cccc2n1CC(F)(F)F [Compound 965A, N-(1,5-dihydroxypentan-3-yl)-4-{[3-(4-{[(3S,4R)-3-fluoro-1-methylpiperidin-4-yl]amino}-1-(2,2,2-trifluoroethyl)-1H-indol-2-yl)prop-2-yn-1-yl]amino}-3-methoxybenzamide]
+ (+ = 0 μM ≤ SC150 < 0.05 μM)	COc1cc(C(=O)NCC(COC(=O)C(C)C)OC(=O)C(C)C)ccc1NCC#Cc1cc2c(N[C@@H]3CCN(C)C[C@@H]3F)cccc2n1CC(F)(F)F (stereo partly drawn) [Compound 967A, 1-[(4-{[3-(4-{[(3S,4R)-3-fluoro-1-methylpiperidin-4-yl]amino}-1-(2,2,2-trifluoroethyl)-1H-indol-2-yl)prop-2-yn-1-yl]amino}-3-methoxyphenyl)formamido]-3-[(2-methylpropanoyl)oxy]propan-2-yl 2-methylpropanoate]
+ (+ = 0 μM ≤ SC150 < 0.05 μM)	COc1cc(C(=O)NCC2COC(=O)O2)ccc1NCC#Cc1cc2c(N[C@@H]3CCN(C)C[C@@H]3F)cccc2n1CC(F)(F)F (stereo partly drawn) [Compound 968A, 4-{1[3-(4-{1[(3S,4R)-3-fluoro-1-methylpiperidin-4-yl]amino}-1-(2,2,2-trifluoroethyl)-1H-indol-2-yl)prop-2-yn-1-yl]amino}-3-methoxy-N-[(2-oxo-1,3-dioxolan-4-yl)methyl]benzamide]
+ (+ = 0 μM ≤ SC150 < 0.05 μM)	COc1cc(C(=O)NCCS(C)(=O)=O)ccc1NCC#Cc1cc2c(N[C@@H]3CCN(C)C[C@@H]3F)cccc2n1CC(F)(F)F [Compound 969A, 4-{[3-(4-{[(3S,4R)-3-fluoro-1-methylpiperidin-4-yl]amino}-1-(2,2,2-trifluoroethyl)-1H-indol-2-yl)prop-2-yn-1-yl]amino}-N-(2-methanesulfonylethyl)-3-methoxybenzamide]
+ (+ = 0 μM ≤ SC150 < 0.05 μM)	COc1cc(C(=O)NCC(COC(C)=O)OC(C)=O)ccc1NCC#Cc1cc2c(N[C@@H]3CCN(C)C[C@@H]3F)cccc2n1CC(F)(F)F (stereo partly drawn) [Compound 970A, 1-(acetyloxy)-3-[(4-{[3-(4-{[(3S,4R)-3-fluoro-1-methylpiperidin-4-yl]amino}-1-(2,2,2-trifluoroethyl)-1H-indol-2-yl)prop-2-yn-1-yl]amino}-3-methoxyphenyl)formamido]propan-2-yl acetate]

More lines, now with the values behind:

SMILES	SC150 (concentration of the compound required to increase the DNA binding activity by 50%)
COc1cc(C(=O)N(C)C)ccc1NCC#Cc1cc2c(N[C@@H]3CCN(C)C[C@@H]3F)cccc2n1CC(F)(F)F [Compound 942A, 4-{[3-(4-{[(3S,4R)-3-fluoro-1-methylpiperidin-4-yl]amino}-1-(2,2,2-trifluoroethyl)-1H-indol-2-yl)prop-2-yn-1-yl]amino}-3-methoxy-N,N-dimethylbenzamide]	+ (+ = 0 μM ≤ SC150 < 0.05 μM)
COc1cc(C(=O)N(C)C(C)C)ccc1NCC#Cc1cc2c(N[C@@H]3CCN(C)C[C@@H]3F)cccc2n1CC(F)(F)F [Compound 944A, 4-{[3-(4-{[(3S,4R)-3-fluoro-1-methylpiperidin-4-yl]amino}-1-(2,2,2-trifluoroethyl)-1H-indol-2-yl)prop-2-yn-1-yl]amino}-3-methoxy-N-methyl-N-(propan-2-yl)benzamide]	+ (+ = 0 μM ≤ SC150 < 0.05 μM)
COCCNC(=O)c1ccc(NCC#Cc2cc3c(N[C@@H]4CCN(C)C[C@@H]4F)cccc3n2CC(F)(F)F)c(OC)c1 [Compound 945A, 4-{[3-(4-{[(3S,4R)-3-fluoro-1-methylpiperidin-4-yl]amino}-1-(2,2,2-trifluoroethyl)-1H-indol-2-yl)prop-2-yn-1-yl]amino}-3-methoxy-N-(2-methoxyethyl)benzamide]	+ (+ = 0 μM ≤ SC150 < 0.05 μM)
CCN(CC)CCNC(=O)c1ccc(NCC#Cc2cc3c(N[C@@H]4CCN(C)C[C@@H]4F)cccc3n2CC(F)(F)F)c(OC)c1 [Compound 946A]	+ (+ = 0 μM ≤ SC150 < 0.05 μM)
COc1cc(C(=O)NCCO)ccc1NCC#Cc1cc2c(N[C@@H]3CCN(C)C[C@@H]3F)cccc2n1CC(F)(F)F [Compound 947A]	+ (+ = 0 μM ≤ SC150 < 0.05 μM)
COc1cc(C(=O)N[C@@H]2[C@@H](O)[C@H](O)[C@@H](CO)O[C@H]2O)ccc1NCC#Cc1cc2c(N[C@@H]3CCN(C)C[C@@H]3F)cccc2n1CC(F)(F)F [Compound 948A, 4-((3-(4-(((3S,4R)-3-fluoro-1-methylpiperidin-4-yl)amino)-1-(2,2,2-trifluoroethyl)-1H-indol-2-yl)prop-2-yn-1-yl)amino)-3-methoxy-N-((2R,3R,4R,5S,6R)-2,4,5-trihydroxy-6-(hydroxymethyl)tetrahydro-2H-pyran-3-yl)benzamide]	+ (+ = 0 μM ≤ SC150 < 0.05 μM)
COc1cc(C(=O)N[C@H](C)CO)ccc1NCC#Cc1cc2c(N[C@@H]3CCN(C)C[C@@H]3F)cccc2n1CC(F)(F)F [Compound 950A, 4-{[3-(4-{[(3S,4R)-3-fluoro-1-methylpiperidin-4-yl]amino}-1-(2,2,2-trifluoroethyl)-1H-indol-2-yl)prop-2-yn-1-yl]amino}-N-[(2R)-1-hydroxypropan-2-yl]-3-methoxybenzamide]	+ (+ = 0 μM ≤ SC150 < 0.05 μM)
CN1CC[C@@H](Nc2cccc3c2cc(C#CCNC(=O)C2CC2)n3CC(F)(F)F)[C@@H](F)C1 [Compound 951A, N-[3-(4-{[(3S,4R)-3-fluoro-1-methylpiperidin-4-yl]amino}-1-(2,2,2-trifluoroethyl)-1H-indol-2-yl)prop-2-yn-1-yl]cyclopropanecarboxamide]	+ (+ = 0 μM ≤ SC150 < 0.05 μM)
CN1CC[C@@H](Nc2cccc3c2cc(C#CCNC(=O)[C@@H]2C[C@H]2c2ccccc2)n3CC(F)(F)F)[C@@H](F)C1 [Compound 952A, (1R,2R)—N-[3-(4-{[(3S,4R)-3-fluoro-1-methylpiperidin-4-yl]amino}-1-(2,2,2-trifluoroethyl)-1H-indol-2-yl)prop-2-yn-1-yl]-2-phenylcyclopropane-1-carboxamide]	+ (+ = 0 μM ≤ SC150 < 0.05 μM)
CN1CC[C@@H](Nc2cccc3c2cc(C#CCNC(=O)c2ccn(C)c2)n3CC(F)(F)F)[C@@H](F)C1 [Compound 953A, N-[3-(4-{[(3S,4R)-3-fluoro-1-methylpiperidin-4-yl]amino}-1-(2,2,2-trifluoroethyl)-1H-indol-2-yl)prop-2-yn-1-yl]-1-methyl-1H-pyrrole-3-carboxamide]	+ (+ = 0 μM ≤ SC150 < 0.05 μM)
CCn1ccc(C(=O)NCC#Cc2cc3c(N[C@@H]4CCN(C)C[C@@H]4F)cccc3n2CC(F)(F)F)c1 [Compound 954A, 1-ethyl-N-[3-(4-{[(3S,4R)-3-fluoro-1-methylpiperidin-4-yl]amino}-1-(2,2,2-trifluoroethyl)-1H-indol-2-yl)prop-2-yn-1-yl]-1H-pyrrole-3-carboxamide]	+ (+ = 0 μM ≤ SC150 < 0.05 μM)
CN1CC[C@@H](Nc2cccc3c2cc(C#CCNC(=O)c2ccn(C(C)(C)C)c2)n3CC(F)(F)F)[C@@H](F)C1 [Compound 955A, 1-tert-butyl-N-[3-(4-{[(3S,4R)-3-fluoro-1-methylpiperidin-4-yl]amino}-1-(2,2,2-trifluoroethyl)-1H-indol-2-yl)prop-2-yn-1-yl]-1H-pyrrole-3-carboxamide]	+ (+ = 0 μM ≤ SC150 < 0.05 μM)
COC(=O)[C@H](CCC(N)=O)NC(=O)c1ccc(NCC#Cc2cc3c(N[C@@H]4CCN(C)C[C@@H]4F)cccc3n2CC(F)(F)F)c(OC)c1 [Compound 956A, methyl (2S)-4-carbamoyl-2-[(4-{[3-(4-{[(3S,4R)-3-fluoro-1-methylpiperidin-4-yl]amino}-1-(2,2,2-trifluoroethyl)-1H-indol-2-yl)prop-2-yn-1-yl]amino}-3-methoxyphenyl)formamido]butanoate]	+ (+ = 0 μM ≤ SC150 < 0.05 μM)
